According to PMC5321741, “Arylmethylamino steroids as antiparasitic agents” (Nature Communications, 2017):

Key:
[1] = system: hepatic cell line (HepG2); test: cytotoxicity on hepatic cell line (literature); format: cell-based
[2] = system: adult Schistosoma mansoni; conditions: no longer toxic at 1 μM; cited from earlier work
[3] = system: hepatic cell line (HepG2); conditions: cited from earlier work

For `O=C(C1CCCCC1)N1CC(=O)N2CCc3ccccc3C2C1` (stereo not shown) [praziquantel], which selectivity index ([1]; HepG2 IC50 with respect to adult worms treated in vitro with 5 µM) is on record?
The selectivity index was 33.

What about the selectivity index ([1]; HepG2 IC50 with respect to adult worms treated in vitro with 10 µM) of the same molecule?
Its selectivity index is 16.5.

What about the “concentration toxic for schistosomes in vitro” value [2] of the same molecule?
The value was 5 to 10 µM.

What about the IC50 [3] of the same molecule?
Its IC50 is 165 µM.
